In article PMC9465710, “Identification of a BAZ2A-Bromodomain Hit Compound by Fragment Growing” (ACS Medicinal Chemistry Letters, 2022):
Several values for one entry are separate records, joined by “and”; a condition that tells them apart may be missing. Identical values can stand only once.

How the values were obtained:
BAZ2A = test system: BAZ2A; parameters: method as in PMID 25799074, PMID 25719566; conditions: cited from earlier work
BAZ2A bromodomain [1] = target: T1, BAZ2A bromodomain (Homo sapiens, UniProt Q9UIF9); test: AlphaScreen competition binding assay (BAZ2A bromodomain binding to acetylated peptide); conditions: single dose 100 μM; IC50 not determined; read-out: Residual activity when tested in single dose
T1 construct: made in house
T1 sequence (Q9UIF9 1793-1897 limits assumed): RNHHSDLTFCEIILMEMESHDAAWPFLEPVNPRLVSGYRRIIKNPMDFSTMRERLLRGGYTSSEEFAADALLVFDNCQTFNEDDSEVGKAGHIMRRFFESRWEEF

BAZ2A bromodomain [2] = target: T1, BAZ2A bromodomain; test: as above; conditions: for IC50: AlphaScreen dose-response
Procedure: The 36 selected molecules were tested by AlphaScreen at single doses in duplicate. Six molecules (compounds 8, 9, 11, 14, 18, and 25) decreased binding of BAZ2A bromodomain to the acetylated peptide by at least 50% when tested at 500 μM. […]
AlphaScreen assay was conducted as detailed in [11]. […]

BAZ2B bromodomain = target: T2, BAZ2B bromodomain (Homo sapiens, UniProt Q9UIF8); test: AlphaScreen competition binding assay on the BAZ2B bromodomain; conditions: AlphaScreen dose-response, Figure S6
T2 sequence (Q9UIF8 2060-2164 limits assumed): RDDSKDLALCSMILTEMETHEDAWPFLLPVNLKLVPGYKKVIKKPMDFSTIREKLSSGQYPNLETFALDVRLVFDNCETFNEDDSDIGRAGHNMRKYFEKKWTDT
Procedure: (§1) Trigonal crystals were obtained by co-crystallization as described in the same work. Monoclinic crystals were obtained by co-crystallization with compound 4 of reference; a back-soaking procedure was then applied by incubating the crystal in the crystallization solution without inhibitors for 36-48 hours, and subsequently exposing it to the new ligand of interest for 12-24 hours.
(§2) Diffraction data were collected at the Elettra Synchrotron Light Source (Trieste, Italy), XRD1 and XRD2 beamlines, and at the ESRF (Grenoble, France), ID30-A1 beamline. Data were processed and structures were solved as described elsewhere. BAZ2A/cmp9 data have been corrected for diffraction anisotropy with STARANISO (https://staraniso.globalphasing.org/cgi-bin/staraniso.cgi).
(§3) Data collection and refinement statistics are reported in Suppl. Tables 3-6. Electron densities (2Fo-Fc polder OMIT map) for the bound inhibitors are shown in Suppl. Fig. 7.
(§4) AlphaScreen assay was conducted as detailed in [11]. All experiments were performed at least in […]
(§5) Isothermal Titration Calorimetry
(§6) ITC experiments were performed using an MicroCal PEAQ-IT C microcalorimeter (Malvern Panalytical , UK) at 25°C with a stirring speed of 750 rpm in 20mM Tris pH 7. 8, 0. 2 M NaCl, 0. 2 mM TCEP and 0. 25% DMSO. For each experiment, one 0. […]

BAZ2A bromodomain [3] = target: T1, BAZ2A bromodomain; test: Isothermal titration calorimetry (ITC); type: binding; conditions: 25°C, 0.25% DMSO, racemic mixture, read-out: equilibrium dissociation constant (KD)
Procedure: as §1, §2, §3, §4, §5, §6

| remaining binding at 100 µM (BAZ2A bromodomain [1]) | SMILES | further results |
| --- | --- | --- |
| > 50% | CCc1c(-c2csc(N3CCNCC3C(=O)NCc3ncoc3C(C)C)n2)[nH]c(C)c1C(C)=O (stereo not shown) [Compound 101] | – |
| > 50% | CCc1c(-c2csc(N3CCN(Cc4cnn5c4OCCC5)CC3)n2)[nH]c(C)c1C(C)=O [Compound 89] | – |
| > 50% | CCc1c(-c2csc(N3CCNCC3C(=O)NC3CCC(C(N)=O)CC3)n2)[nH]c(C)c1C(C)=O (stereo not shown) [Compound 103] | – |
| > 50% | CCc1c(-c2csc(N3CCN(Cc4cc(S(N)(=O)=O)co4)CC3)n2)[nH]c(C)c1C(C)=O [Compound 91] | – |

The remaining lines, values behind:

| SMILES | remaining binding at 100 µM (BAZ2A bromodomain [1]) | further results |
| --- | --- | --- |
| CCCOc1ccn2c(C(C)=O)cc(-c3ccccc3S(C)(=O)=O)c2c1 [GSK2801] | – | affinity for BAZ2A (in words) (BAZ2A): very high nanomolar range |
| CCc1c(-c2csc(N3CCNCC3C(=O)NCC3CC4(CCC4)C3)n2)[nH]c(C)c1C(C)=O (stereo not shown) [Compound 106] | > 50% | – |
| CCc1c(-c2csc(N3CCN(Cc4c[nH]c(=O)[nH]c4=O)CC3)n2)[nH]c(C)c1C(C)=O [Compound 93] | > 50% | – |
| CCc1c(-c2csc(N3CCNCC3C(=O)NCCc3ccno3)n2)[nH]c(C)c1C(C)=O (stereo not shown) [Compound 104] | – | ligand efficiency (LE) (BAZ2A bromodomain [2]): 0.24 kcal/mol per heavy atom; lipophilic ligand efficiency (LLE) (BAZ2A bromodomain [2]): 4.0; IC50 (BAZ2A bromodomain [2]): 4 ± 0.2 µM; increase in potency with respect to 47 (BAZ2A bromodomain [2]; from AlphaScreen IC50): 8 fold; IC50 (BAZ2B bromodomain): 33.5 µM; Kd (BAZ2A bromodomain [3]): 7.1 µM and 7 µM |
| CCc1c(-c2csc(N3CCN(Cc4ccsc4S(N)(=O)=O)CC3)n2)[nH]c(C)c1C(C)=O [Compound 90] | > 50% | – |
| CCCNC(=O)c1c(C)[nH]c(-c2csc(N3CCNCC3)n2)c1CC [Compound 75] | > 50% | – |
| CC(=O)c1c(C)[nH]c(-c2csc(N3CCNCC3)n2)c1-c1ccnn1C [Compound 76] | > 50% | – |
| CCc1c(-c2csc(N3CCN(Cc4cnc(N)nc4)CC3)n2)[nH]c(C)c1C(C)=O [Compound 94] | > 50% | – |
| Cn1cc(CCn2cnc(-c3cnn(C)c3)c2-c2ccc(C#N)cc2)cn1 [BAZ2-ICR] | – | affinity for BAZ2A (in words) (BAZ2A): very high nanomolar range |
| CCc1c(-c2csc(N3CCNCC3C(=O)NCC3CC(C)C3)n2)[nH]c(C)c1C(C)=O (stereo not shown) [Compound 114] | > 50% | – |
| CCc1c(-c2csc(N3CCNCC3C(=O)NCC(F)(F)F)n2)[nH]c(C)c1C(C)=O (stereo not shown) [Compound 107] | – | IC50 (BAZ2A bromodomain [2]): 14.1 ± 0.2 µM |
| Cc1[nH]c(-c2csc(-c3cc[nH]n3)n2)c2c1C(=O)CCC2 [Compound 69] | – | IC50 (BAZ2A bromodomain [2]): 74.3 ± 4.7 µM |
| Cc1[nH]c(-c2csc(NC(=N)N)n2)c2c1C(=O)CCC2 [Compound 83] | – | IC50 (BAZ2A bromodomain [2]): 11 ± 0.2 µM |
